Assay [1] concerns P. falciparum 3D7 trophozoites. Briefly: Metabolomic fingerprint profiling LC-MS. Details: UDP-D-glucose / ADP-D-glucose: unit not given here. The assay is classed as cell-based, Plasmodium falciparum.
A further assay has as its system P. falciparum. Briefly: EC50 listed in S2 Table Metabolomics (used to set the concentration tested). The assay is classed as cell-based. The settings on record: Plasmodium falciparum; EC50 used for Factor_XEC50 in metabolomics; read-out: EC50_nM.
Assay [2] relates to Saccharomyces cerevisiae strain WC081. Briefly: Yeast disc diffusion in combination with artemisinin. The settings on record: 10 µL of 1 mM on disc, 0.2 µM artemisinin, read-out: larger zone size with artemisinin (SCG+artemisinin minus SCG). The assay is classed as cell-based. The source says:
Yeast screening for enhanced drug effects in combination with artemisinin, Jensen group (data presented first in this paper). […] Yeast (S. cerevisiae) was used as a proxy for P. falciparum, because the killing of S. cerevisiae and P. falciparum appear to have similarities. Saccharomyces cerevisiae strain WC081 (Mat a, leu2∆0, lys2∆0, ura3∆0, his3∆1, pdr1∆::HIS3, pdr3∆::kanMX4) was utilized and was originally derived from strain BY4742. Regulators of Multi-drug resistance transporters have been deleted from this strain to enhance the toxicity of compounds. Assay utilized the disc diffusion method with the observance of a clear zone indicating inhibition of growth. Synthetic complete medium containing 3% glycerol as a carbon source (SCG) was used in each assay. 10 µL of each compound at 1 mM was added to a paper disc which was placed on SCG and SCG^+artemisinin (0.2 µM) plates seeded with 10e6 yeast cells. Plates were incubated at 30 °C for 5 days and clear zones were measured. Compounds that produced a larger clear zone in the presence of artemisinin were considered to have an additive interaction with artemisinin. Results are reported as diameter of clear zone on SCG^+artemisinin plates - diameter of clear zone on SCG plates without artemisinin.

In another assay the target is T1, PfMTIP-MyoA (Plasmodium falciparum, UniProt Q8I4W8).
T1 construct: made in house; host or cells: E. coli BL21 DE3 (peptide)
Briefly: SPR MTIP-MyoA PPI. The assay is classed as binding, P. falciparum. The procedure:
Atg8-Atg3, Aldolase-TRAP, and Aldolase-MTRAP, MTIP-MyoA, GAP50-FactorH protein-protein interaction (PPI) inhibitor and Surface Plasmon Resonance screening to identify protein-protein interaction inhibitors, Bosch group (Atg8-Atg3 interactions are published in ref [38], rest are not or as noted below). In a primary screen, the Malaria Box compounds were screened at 5 µM final concentration in 1x PBS supplemented with 0.01% (v/v) P20 and 1% (v/v) DMSO using a Biacore 3000 instrument. While one protein was covalently attached to the chip surface via amine coupling, the analyte was passed over the chip in the presence and absence of Malaria Box compounds. Every 12th injection a positive control was passed over the chip to ensure constant binding of the partner protein during the duration of the experiment. Malaria Box compounds resulting in more than 25% decrease in binding of the two proteins to each other were further considered in a dose-response screen ranging from 50 µM to 200 nM. Similar to the primary screen, a positive control, consisting of the protein partner alone in the absence of small molecule compounds, was passed over the flow cells to ensure that the chip surface had not decayed over the course of the experiment. All SPR interaction studies were performed as previously described. […]

The next assay deals with PfPMT (Plasmodium falciparum, UniProt Q8IDQ9). In words: PfPMT gene replacement yeast growth. The settings on record: 100µM.
Where [3] appears, read: metabolite level change after treatment.

T1 sequence (Q8I4W8 entry or part of it): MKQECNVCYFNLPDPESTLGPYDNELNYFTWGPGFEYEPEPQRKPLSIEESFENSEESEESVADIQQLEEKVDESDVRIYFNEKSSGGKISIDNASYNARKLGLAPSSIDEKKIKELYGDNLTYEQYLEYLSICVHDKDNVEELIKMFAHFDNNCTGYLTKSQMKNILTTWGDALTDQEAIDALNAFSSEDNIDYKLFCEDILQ
Sequence of PfPMT (Q8IDQ9 whole entry): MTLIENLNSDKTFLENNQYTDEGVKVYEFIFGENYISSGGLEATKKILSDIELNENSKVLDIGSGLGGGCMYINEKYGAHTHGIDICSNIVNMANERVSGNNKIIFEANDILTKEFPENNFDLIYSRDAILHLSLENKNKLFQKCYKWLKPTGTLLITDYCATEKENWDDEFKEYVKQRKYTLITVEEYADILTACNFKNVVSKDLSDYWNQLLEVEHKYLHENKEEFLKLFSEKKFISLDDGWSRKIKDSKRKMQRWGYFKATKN

`Cc1cc(Nc2ccc3ccccc3c2)n2ncnc2n1` [MMV011099]: in assay [1] (S2 Table Metabolomics, metabolite Acetyllysine), the Acetyllysine is recorded as 0.02852. The N-acetyl-L-ornithine in assay [1] (S2 Table Metabolomics, metabolite N-acetyl-L-ornithine) turned out to be 0.1505. Besides, the N-carbamoyl-L-aspartate in assay [1] (S2 Table Metabolomics, metabolite N-carbamoyl-L-aspartate) is recorded as 3.868. In assay [1] (S2 Table Metabolomics, metabolite NADPH), the NADPH amounted to 1.182. Moreover, in assay [1] (S2 Table Metabolomics, metabolite dAMP), the dAMP is given as -0.08024. Also, in assay [1] (S2 Table Metabolomics, metabolite dCMP), the dCMP is reported as -0.5906. Moreover, the dTDP in assay [1] (S2 Table Metabolomics, metabolite dTDP) is on record as -1.017. Further, the dTMP in assay [1] (S2 Table Metabolomics, metabolite dTMP) is -0.9279. Further, in assay [1] (S2 Table Metabolomics, metabolite dTTP), the dTTP is -1.156. Moreover, in assay [1] (S2 Table Metabolomics, metabolite dihydroorotate), the dihydroorotate is 4.157. For the same molecule, the orotate in assay [1] (S2 Table Metabolomics, metabolite orotate) is -1.974. In addition, in assay [1] (S2 Table Metabolomics, peptide DLH), the DLH is 0.4532. Further, in assay [1] (S2 Table Metabolomics, peptide DLS/SDL/SID), the DLS/SDL/SID was determined as 0.4641. The PD in assay [1] (S2 Table Metabolomics, peptide PD) came to 0.1181. This molecule also gave a PEE in assay [1] (S2 Table Metabolomics, peptide PEE) of 0.2947. Besides, the PVNF in assay [1] (S2 Table Metabolomics, peptide PVNF) was determined as 0.2329. The 3-phosphoglycerate in assay [1] (metabolite 3-phosphoglycerate, S2 Table Metabolomics) is given as -0.2056. Moreover, the ADP-D-glucose in assay [1] (metabolite ADP-D-glucose, S2 Table Metabolomics) is given as 0.1525. Besides, the ATP in assay [1] (metabolite ATP, S2 Table Metabolomics) is reported as 0.2332. For the same molecule, in assay [1] (metabolite CDP, S2 Table Metabolomics, change in metabolite level after compound treatment), the CDP was -0.709. The D-sedoheptulose-1/7-phosphate in assay [1] (metabolite D-sedoheptulose-1/7-phosphate, S2 Table Metabolomics, change in metabolite level after compound treatment) was 0.01889. For the same molecule, the FAD in assay [1] (metabolite FAD, S2 Table Metabolomics) was found to be 0.08024. Also, the GMP in assay [1] (metabolite GMP, S2 Table Metabolomics, change in metabolite level after compound treatment) is given as 0.02967. Besides, the “NAD+” value in assay [1] (metabolite NAD+, S2 Table Metabolomics) is recorded as -0.0008425. The “NADP+” value in assay [1] (metabolite NADP+, S2 Table Metabolomics) worked out at 0.1353. In assay [1] (metabolite Octoluse Bisphosphate, S2 Table Metabolomics, change in metabolite level after compound treatment), the “Octoluse Bisphosphate” value was 0.08614. Also, the Pyroglutamic acid in assay [1] (metabolite Pyroglutamic acid, S2 Table Metabolomics) was -0.4752. Further, the UDP-D-glucose in assay [1] (metabolite UDP-D-glucose, S2 Table Metabolomics) is given as 0.067. Also, in assay [1] (metabolite UDP-D-glucuronate, S2 Table Metabolomics), the UDP-D-glucuronate is reported as -0.02366. The UDP-N-acetyl-glucosamine in assay [1] (metabolite UDP-N-acetyl-glucosamine, S2 Table Metabolomics) is on record as -0.1127. Further, the UDP in assay [1] (metabolite UDP, S2 Table Metabolomics, change in metabolite level after compound treatment) is -1.3628. Besides, the UMP in assay [1] (metabolite UMP, S2 Table Metabolomics, change in metabolite level after compound treatment) was -1.675. In addition, the UTP in assay [1] (metabolite UTP, S2 Table Metabolomics, change in metabolite level after compound treatment) is on record as -1.64. For the same molecule, the a-ketoglutarate in assay [1] (metabolite a-ketoglutarate, S2 Table Metabolomics) is -1.062. Moreover, the citrate/isocitrate in assay [1] (metabolite citrate/isocitrate, S2 Table Metabolomics, change in metabolite level after compound treatment) is -1.28. The cytidine in assay [1] (metabolite cytidine, S2 Table Metabolomics) was 0.7717. Moreover, the dATP in assay [1] (metabolite dATP, S2 Table Metabolomics) stood at 0.5433. The dGMP/AMP in assay [1] (metabolite dGMP/AMP, S2 Table Metabolomics, change in metabolite level after compound treatment) is -0.03244. For the same molecule, the fumarate in assay [1] (metabolite fumarate, S2 Table Metabolomics, change in metabolite level after compound treatment) is -1.091. For the same molecule, in assay [1] (metabolite glucose-1/6-phosphate, S2 Table Metabolomics, change in metabolite level after compound treatment), the glucose-1/6-phosphate is on record as 0.2093. Also, the glycerate in assay [1] (metabolite glycerate, S2 Table Metabolomics, change in metabolite level after compound treatment) was -1.246. For the same molecule, the guanine in assay [1] (metabolite guanine, S2 Table Metabolomics, change in metabolite level after compound treatment) is given as -0.547. Also, the guanosine in assay [1] (metabolite guanosine, S2 Table Metabolomics, change in metabolite level after compound treatment) was -1.524. The hypoxanthine in assay [1] (metabolite hypoxanthine, S2 Table Metabolomics) came out at 0.001118. In addition, the indole in assay [1] (metabolite indole, S2 Table Metabolomics) amounted to 0.03287. Besides, the inosine in assay [1] (metabolite inosine, S2 Table Metabolomics, change in metabolite level after compound treatment) is -0.4013. Moreover, in assay [1] (setting [3]), the 2_3-Diphosphoglyceric acid was -0.01924, the 4-phosphopantothenate is -0.6208, the 6-phospho-D-gluconate was 0.1135 and the FMN is -0.06047. In assay [1] (setting [3]), the IMP was -0.0451, the Pyrophosphate was 0.1187, the Sedoheptoluse bisphosphate was -0.1999 and the cyclic-AMP is given as -0.1393. Also, in assay [1] (setting [3]), the glutathione disulfide is -0.2357, the lactate is given as -0.8843 and the myo-inositol is reported as -1.14. Further, the nicotinate in assay [1] (metabolite nicotinate, S2 Table Metabolomics) was -1.365. For the same molecule, the ornithine in assay [1] (metabolite ornithine, S2 Table Metabolomics) was 0.02843. The phosphoenolpyruvate in assay [1] (metabolite phosphoenolpyruvate, S2 Table Metabolomics) is recorded as -0.5081. Besides, in assay [1] (metabolite pyruvate, S2 Table Metabolomics, change in metabolite level after compound treatment), the pyruvate is -1.9111. Also, in assay [1] (metabolite ribose-phosphate, S2 Table Metabolomics), the ribose-phosphate was determined as 0.184. In assay [1] (metabolite sarcosine/alanine, S2 Table Metabolomics, change in metabolite level after compound treatment), the sarcosine/alanine was -0.4398. The sn-glycerol-3-phosphate in assay [1] (metabolite sn-glycerol-3-phosphate, S2 Table Metabolomics) was -0.3081. In assay [1] (metabolite succinate/methylmalonic acid, S2 Table Metabolomics, change in metabolite level after compound treatment), the succinate/methylmalonic acid is on record as -0.5239. Besides, the uridine in assay [1] (metabolite uridine, S2 Table Metabolomics, change in metabolite level after compound treatment) was -1.376. In addition, in assay [1] (metabolite xanthosine, S2 Table Metabolomics, change in metabolite level after compound treatment), the xanthosine is recorded as -0.974. The EC50 in the assay with P. falciparum was found to be 242 nM. For the same molecule, the zone of inhibition at 1000 µM in assay [2] came to 7 mm.

Regarding `Cc1ccc(CN2CCC(C(=O)Nc3ccc(-c4cc5ccccc5[nH]4)cc3)CC2)o1` [MMV666071], the “identified against the PfMTIP-MyoA interaction” value on PfMTIP-MyoA is given as “identified against the PfMTIP-MyoA interaction”.

For the molecule `O=C(NC(c1ccccc1)c1ccc2cccnc2c1O)c1ccccc1` (stereo not drawn) [MMV666080], the “candidate inhibitors of PfPMT activity (yeast functional assay)” value at PfPMT was “candidate inhibitors of PfPMT activity”. In addition, at PfMTIP-MyoA, the “identified against the PfMTIP-MyoA interaction” value is “identified against the PfMTIP-MyoA interaction”.

For the origin of these results see PMC4965013, “Open Source Drug Discovery with the Malaria Box Compound Collection for Neglected Diseases and Beyond” (PLoS Pathogens, 2016).
